Data published in patent US20230398228A1, “ERIBULIN-BASED ANTIBODY-DRUG CONJUGATES AND METHODS OF USE” (EISAI R&D MANAGEMENT CO., LTD., priority 2016, published 2023).
Several values for one entry are separate records, joined by “and”; a condition that tells them apart may be missing. Equal values may be shown once.

Legend:
HL-60 cells = assay: Bystander killing assay, Nuclight Red HL-60; format: cell-based, human; details: Homo sapiens; HL-60 cells treated with free eribulin; read-out: EC50, HL-60 (eribulin)
Experimental: The day before study commencement, Nuclight™ Green (NLG) IGROV1 cells were seeded at 5,000 cells/well into 96-well round bottom plates, followed by centrifugation at 1,000 rpm for 3 min at room temperature to ensure formation of a cell pellet. The plate was placed in the vessel of an Incucyte Zoom® (EssenBio science) and incubated at 37° C./5% CO2 overnight. The program was set to collect images of cell growth, and to determine total numbers of nuclear green-stained and nuclear red-stained cells as well as phase-confluency of the cells every two hours. […] 50 μL of cytotoxin solution was added to the NLG-IGROV1 cells and incubated for 30 min. During the incubation period, Nuclight™ Red (NLR) HL-60 (FR^neg) cells were diluted to 2×10^5, 1×10^5 or 5×10^4 cell/mL with fresh media. 50 μL of the NLR-HL60 cell suspension or medium alone was added to the NLG-IGROV1 wells, followed by centrifugation at 1,000 rpm for 3 min at room temperature to ensure re-formation of the cell pellet. The plate was placed back into the vessel of Incucyte Zoom (EssenBio science) and incubated at 37° C./5% CO2 for up to 5 days. Relative cell growth of NLG-IGROV1 was determined by comparison to no ADC or free drug alone added samples using green cell counts. Relative cell growth of HL60 was done similarly, except that red cell count was determined. Determination of IC50 values for both NLG-IGROV1 and NLR-HL-60 was determined using Prism (GraphPad).
In order to assess bystander killing activity, an assay was set up using two labeled cell lines. […] Cytotoxicity was monitored by an Incucyte Zoom® cell imager.

[1] = Maximum tolerated dose of eribulin in CD-1 mice; format: in vivo, mouse; details: for toxicity, in words: q4dx3
Experimental: Naïve CD-1 mice were injected intravenously with 200 μL of eribulin according to the schedule in Table 22. Body weight was measured three times a week including prior to dose on each dosing day and 24 hours following each dose. […] The terminal body weight was measured and recorded. Euthanized mice at the end of the study (and if any mouse euthanized or found dead during the study) were processed for necropsy. Organs were examined for signs of tissue damage.

[2] = tested on: human BM-MSCs co-cultured with MKN-74 cells; assay: 3D co-culture system (rStomach, zPredicta), MSC differentiation by flow cytometry; format: cell-based; details: 7 days treatment, MORAb-202 10 nM, MORAb-003 10 nM, eribulin […] and 0.2 nM (Table 41)
Experimental: All mesenchymal stem cell (MSC)-containing 3D co-culture experiments were conducted in zPredicta, using organ-specific 3D extracellular matrix systems such as rStomach™. Bone marrow mesenchymal stem cells (BM-MSCs) in rStomach™ were co-cultured with the Nuc Red Light MKN-74 gastric cancer cell line in quadruplicate in 48-well format for 12 days. […] Prior to culture, BM-MSCs were evaluated for target antigen expression and for markers of MSC differentiation (Table 40) by flow cytometry.
Controls included untreated and vehicle-treated (PBS and DMSO) cultures. MSC differentiation was monitored by light microscopy. Once visible differentiation was observed, samples were harvested for staining and flow cytometry analysis.
Bone marrow mesenchymal stem cells (BM-MSCs) in rStomach™ (zPredicta) were co-cultured with the MKN-74 gastric cancer cell line for 12 days. […] Once visible MSC differentiation was observed by light microscopy, samples were harvested for staining and flow cytometry analysis.

IGROV1 cells = assay: Crystal Violet cytotoxicity assay (Example 4), IGROV1; format: cell-based, human; details: Homo sapiens, IGROV-1, mean of replicate experiments, read-out: Cytotoxicity IC50 (nM), IGROV1 (FR^hi, MSLN^neg)
Experimental: (§1) Test reagents were serial diluted 1:3 in 2 mL deep-well dilution plates, starting at 200 nM (10 dilutions total). […] Medium was then discarded. […] Plates were read at 570 nm. Data was analyzed using GraphPad Prism 6.

NCI-H2110 cells = assay: Crystal Violet cytotoxicity assay (Example 4), NCI-H2110; format: cell-based, human; details: Homo sapiens, mean of replicate experiments, read-out: Cytotoxicity IC50 (nM), NCI-H2110 (FR^med, MSLN^med)
Experimental: as §1

A431 cells = assay: Crystal Violet cytotoxicity assay (Example 4), A431 (parental); format: cell-based, human; details: Homo sapiens, A-431, mean of replicate experiments, read-out: Cytotoxicity IC50 (nM), A431 (FR^neg, MSLN^neg)
Experimental: Test reagents were serial diluted 1:3 in 2 mL deep-well dilution plates, starting at 200 nM (10 dilutions total). […] Medium was then discarded. […] Plates were read at 570 nm. Data was analyzed using GraphPad Prism 6. […]
MAL-PEG2-Val-Cit-PAB-eribulin (ER-001159569) was conjugated to eight different anti-human mesothelin antibodies (Table 1). Binding affinities of the parental antibodies were determined by BIAcore analysis, as described above in section 1.6.1. Aggregation levels for all anti-human mesothelin ADCs were determined by SEC-HPLC and the DAR was analyzed using HIC-HPLC. In vitro potency was evaluated using a Crystal Violet cell-based cytotoxicity assay in A3 (A431 stabily transfected with human mesothelin (MSLN), MSLN^hi), OVCAR3 (human ovarian, MSLN^hi), HEC-251 (human endometroid, MSLN^med), H226 (human lung squamous cell mesothelioma, MSLN^lo), and A431 parental (MSLN^neg) cells.

NCI-N87 cells = assay: Crystal Violet cytotoxicity assay (Example 4), NCI-N87; format: cell-based, human; details: Homo sapiens; NCI-N87-Luc cells; mean of replicate experiments; read-out: Cytotoxicity IC50 (nM), NCI-N87-Luc (FR^lo, MSLN^med, her2^hi)
Experimental: as §1

BT-474 cells = assay: Crystal Violet cytotoxicity assay (Example 4), BT-474; format: cell-based, human; details: Homo sapiens; BT-474 cells; mean of replicate experiments; read-out: Cytotoxicity IC50 (nM), BT-474 (FR^neg, MSLN^neg, her2^hi)
Experimental: as §1

ZR-75 cells = assay: Crystal Violet cytotoxicity assay (Example 4), ZR-75; format: cell-based, human; details: Homo sapiens, ZR75; ZR-75-1 cells; mean of replicate experiments; read-out: Cytotoxicity IC50 (nM), ZR-75-1 (FR^neg, MSLN^neg, her2^med)
Experimental: as §1

NUGC3 cells = assay: Crystal Violet cytotoxicity assay (Example 4), NUGC3; format: cell-based, human; details: Homo sapiens, NUGC-3; NUGC3-Luc cells; mean of replicate experiments; read-out: Cytotoxicity IC50 (nM), NUGC3-Luc (FR^neg, MSLN^neg, her2^neg)
Experimental: as §1

in vivo [3] = details: female, NMRI nu/nu, mouse, iv
Experimental: (§2) Tumor fragments were implanted subcutaneously into the left flank of 40 NMRI nu/nu female mice, and tumor volume was monitored. Mice with a tumor volume of 100-160 mm^3 were randomized into one of four groups (Groups A-D, Table 39). […] Each group consisted of 8 animals. The day of randomization was designated as Day 0 of the experiment.
(§3) Tumor growth was evaluated by the measurement of two perpendicular diameters twice weekly, and tumor volume (TV), relative tumor volume (RTV) and treated/control (T/C) values were calculated. Body weight was also evaluated twice weekly as a parameter for toxicity, with the calculation of the body weight per group and body weight changes (BWC) relative to the start of treatment. Animals were sacrificed when the individual tumor volume exceeded 1 cm^3, or at the end of the study.

in vivo [4] = details: female, NMRI nu/nu, mouse, iv; remark: listed apart in the source
Experimental: as §2, §3

[5] = tested on: Endo-12961 endometrial cancer patient-derived xenograft; assay: Endometrial cancer PDx model Endo-12961; details: for anti-tumor activity, in words: single i.v. dose
Experimental: as §2, §3

[6] = tested on: Endo-10590 endometrial cancer patient-derived xenograft; assay: Endometrial cancer PDx model Endo-10590; details: for anti-tumor activity, in words: single i.v. dose
Experimental: as §2, §3

[7] = MORAb-202 5 mg/kg or eribulin 3.2 mg/kg

C=C1C[C@@H]2CC[C@@]34C[C@H]5O[C@H]6[C@@H](O3)[C@H]3O[C@H](CC[C@@H]3O[C@H]6[C@H]5O4)CC(=O)C[C@@H]3[C@@H](OC)[C@@H](C[C@H](O)CN)O[C@H]3C[C@H]3O[C@@H](CC[C@@H]1O2)C[C@@H](C)C3=C [eribulin]
EC50 (HL-60 cells): 0.17 nM
clinical finding, in words ([1]; 3.2 mg/kg q4dx3, after the second dose): piloerection in all three mice
body weight loss of individual mouse ([1]; 3.2 mg/kg q4dx3, after the third dose): 17% and 8%
toxicity, in words ([1]; 3.2 mg/kg): severe weight loss
toxicity, in words ([1]; doses up to 1.6 mg/kg): no toxicity
body weight loss or clinical findings, in words ([1]; doses up to 1.6 mg/kg, q4dx3, i.v.): No significant body weight loss or clinical findings indicating toxicity
gross organ changes at necropsy, in words ([1]; mouse, in vivo): No gross changes
MTD ([1]; mouse, in vivo, iv, q4dx3, i.v., CD-1 mice): 1.6 mg/kg
Percentage of live cells, Pericytes ([2]; PBS 14.6%): 25.8%
Percentage of live cells, Adipocytes ([2]; PBS […]): 2.68%
Percentage of live cells, MSCs ([2]; PBS […]): 29.9%
IC50 (IGROV1 cells): 0.32 nM
IC50 (NCI-H2110 cells): 0.199 nM
IC50 (A431 cells): 0.653 nM
IC50 (NCI-N87 cells): 0.257 nM
IC50 (BT-474 cells): 0.151 nM
IC50 (ZR-75 cells): 0.236 nM
IC50 (NUGC3 cells): 0.445 nM
MTD (in vivo [3]): 3.2 mg/kg
MTD (in vivo [4]): 3.2 mg/kg
tumor re-growth during the study, in words [5, 7]: began to re-grow
anti-tumor activity, in words [5, 7]: significant anti-tumor activity
anti-tumor activity, in words ([5]; eribulin 0.1 mg/kg): no significant anti-tumor activity
effect on body weight, in words ([5]; first week post-treatment): temporarily affected body weight
tumor re-growth during the study, in words [6, 7]: began to re-grow
anti-tumor activity, in words [6, 7]: significant anti-tumor activity
anti-tumor activity, in words ([6]; eribulin 0.1 mg/kg): no significant anti-tumor activity
effect on body weight, in words ([6]; first week post-treatment): temporarily affected body weight
